{"source": "PubChem BioAssay (NCI)", "test_in_all_cases": "NCI anticancer screen, dose series, 48 h", "key": {"[1]": {"system": "UACC-62 melanoma"}, "[2]": {"system": "EKVX NSCLC"}, "[3]": {"system": "KM12 colon"}, "[4]": {"system": "RPMI-8226 leukemia"}, "[5]": {"system": "SK-MEL-5 melanoma"}, "[6]": {"system": "MOLT-4 leukemia"}, "[7]": {"system": "SK-MEL-28 melanoma"}, "[8]": {"system": "UACC-257 melanoma"}, "[9]": {"system": "HT29 colon"}, "[10]": {"system": "ACHN renal"}, "[11]": {"system": "786-0 renal"}, "[12]": {"system": "TK-10 renal"}, "[13]": {"system": "HCT-116 colon"}, "[14]": {"system": "OVCAR-4 ovarian"}, "[15]": {"system": "SK-MEL-2 melanoma"}, "[16]": {"system": "U251 CNS"}, "[17]": {"system": "MDA-MB-435"}, "[18]": {"system": "NCI-H522 lung"}, "[19]": {"system": "PC-3 prostate"}, "[20]": {"system": "OVCAR-3 ovarian"}, "[21]": {"system": "SF-268 CNS"}, "[22]": {"system": "MALME-3M melanoma"}, "[23]": {"system": "SK-OV-3 ovarian"}, "[24]": {"system": "OVCAR-8 ovarian"}, "[25]": {"system": "BT-549 breast"}, "[26]": {"system": "NCI-H460 lung"}, "[27]": {"system": "DU-145 prostate"}, "[28]": {"system": "OVCAR-5 ovarian"}, "[29]": {"system": "SF-295 CNS"}, "[30]": {"system": "SF-539 CNS"}}, "note": "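In this assay, cells in 96-well plates receive the compound at five concentrations for 48 hours. Endpoints are linearly interpolated between the surrounding concentrations. At the GI50, growth is halved. TGI: concentration producing complete growth inhibition.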"}
{"smiles": "c1ccc(-n2nnnc2-c2cccc3ccccc23)cc1", "values": [{"measurement": "TGI", "setting": "[1]", "value": "> 100000", "unit": "nM"}, {"measurement": "GI50", "setting": "[2]", "value": 2420, "unit": "nM"}, {"measurement": "TGI", "setting": "[2]", "value": "> 100000", "unit": "nM"}, {"measurement": "GI50", "setting": "[3]", "value": 396, "unit": "nM"}, {"measurement": "TGI", "setting": "[3]", "value": 22800, "unit": "nM"}, {"measurement": "GI50", "setting": "[4]", "value": 579, "unit": "nM"}, {"measurement": "TGI", "setting": "[4]", "value": 45700, "unit": "nM"}, {"measurement": "GI50", "setting": "[5]", "value": 462, "unit": "nM"}, {"measurement": "TGI", "setting": "[5]", "value": 20200, "unit": "nM"}, {"measurement": "GI50", "setting": "[6]", "value": 657, "unit": "nM"}, {"measurement": "TGI", "setting": "[6]", "value": "> 100000", "unit": "nM"}, {"measurement": "TGI", "setting": "[7]", "value": "> 100000", "unit": "nM"}, {"measurement": "GI50", "setting": "[8]", "value": 27800, "unit": "nM"}, {"measurement": "TGI", "setting": "[8]", "value": "> 100000", "unit": "nM"}, {"measurement": "GI50", "setting": "[9]", "value": 357, "unit": "nM"}, {"measurement": "TGI", "setting": "[9]", "value": "> 20300", "unit": "nM"}, {"measurement": "GI50", "setting": "[10]", "value": 840, "unit": "nM"}, {"measurement": "TGI", "setting": "[10]", "value": "> 100000", "unit": "nM"}, {"measurement": "GI50", "setting": "[11]", "value": 2010, "unit": "nM"}, {"measurement": "TGI", "setting": "[11]", "value": 53200, "unit": "nM"}, {"measurement": "GI50", "setting": "[12]", "value": 1450, "unit": "nM"}, {"measurement": "TGI", "setting": "[12]", "value": "> 100000", "unit": "nM"}, {"measurement": "GI50", "setting": "[13]", "value": 401, "unit": "nM"}, {"measurement": "TGI", "setting": "[13]", "value": 24500, "unit": "nM"}, {"measurement": "GI50", "setting": "[14]", "value": 11400, "unit": "nM"}, {"measurement": "TGI", "setting": "[14]", "value": "> 100000", "unit": "nM"}, {"measurement": "GI50", "setting": "[15]", "value": 3680, "unit": "nM"}, {"measurement": "TGI", "setting": "[15]", "value": "> 63100", "unit": "nM"}, {"measurement": "GI50", "setting": "[16]", "value": 536, "unit": "nM"}, {"measurement": "TGI", "setting": "[16]", "value": "> 48100", "unit": "nM"}, {"measurement": "GI50", "setting": "[17]", "value": 121, "unit": "nM"}, {"measurement": "TGI", "setting": "[17]", "value": 489, "unit": "nM"}, {"measurement": "GI50", "setting": "[18]", "value": 272, "unit": "nM"}, {"measurement": "TGI", "setting": "[18]", "value": 2710, "unit": "nM"}, {"measurement": "GI50", "setting": "[19]", "value": 1140, "unit": "nM"}, {"measurement": "TGI", "setting": "[19]", "value": "> 100000", "unit": "nM"}, {"measurement": "GI50", "setting": "[20]", "value": 257, "unit": "nM"}, {"measurement": "TGI", "setting": "[20]", "value": 627, "unit": "nM"}, {"measurement": "GI50", "setting": "[21]", "value": 833, "unit": "nM"}, {"measurement": "TGI", "setting": "[21]", "value": "> 73100", "unit": "nM"}, {"measurement": "GI50", "setting": "[22]", "value": 635, "unit": "nM"}, {"measurement": "TGI", "setting": "[22]", "value": "> 100000", "unit": "nM"}, {"measurement": "GI50", "setting": "[23]", "value": 908, "unit": "nM"}, {"measurement": "TGI", "setting": "[23]", "value": 13500, "unit": "nM"}, {"measurement": "GI50", "setting": "[24]", "value": 1480, "unit": "nM"}, {"measurement": "TGI", "setting": "[24]", "value": "> 100000", "unit": "nM"}, {"measurement": "GI50", "setting": "[25]", "value": 755, "unit": "nM"}, {"measurement": "TGI", "setting": "[25]", "value": "> 61200", "unit": "nM"}, {"measurement": "GI50", "setting": "[26]", "value": 442, "unit": "nM"}, {"measurement": "TGI", "setting": "[26]", "value": "> 42400", "unit": "nM"}, {"measurement": "GI50", "setting": "[27]", "value": 920, "unit": "nM"}, {"measurement": "TGI", "setting": "[27]", "value": 6860, "unit": "nM"}, {"measurement": "GI50", "setting": "[28]", "value": 3270, "unit": "nM"}, {"measurement": "TGI", "setting": "[28]", "value": "> 100000", "unit": "nM"}, {"measurement": "GI50", "setting": "[29]", "value": 395, "unit": "nM"}, {"measurement": "TGI", "setting": "[29]", "value": 19900, "unit": "nM"}, {"measurement": "GI50", "setting": "[30]", "value": 445, "unit": "nM"}, {"measurement": "TGI", "setting": "[30]", "value": 3430, "unit": "nM"}]}
